Measurements reported in PubChem BioAssay (NCI).
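Where inhibition never reached the appropriate level, the endpoint shown equals the highest concentration tested. Otherwise, values were interpolated linearly from a five-concentration, 48-hour dose response in 96-well plates. TGI: total growth inhibition.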

What was measured:
Experiment in all cases: inhibition of tumour cell growth, NCI panel, 48 h
OVCAR-4 ovarian = system: OVCAR-4 ovarian
SF-295 CNS = system: SF-295 CNS
MOLT-4 leukemia = system: MOLT-4 leukemia
MCF7 breast = system: MCF7 breast
HCT-116 colon = system: HCT-116 colon
HT29 colon = system: HT29 colon
MDA-N = system: MDA-N
PC-3 prostate = system: PC-3 prostate
OVCAR-5 ovarian = system: OVCAR-5 ovarian
NCI-H226 lung = system: NCI-H226 lung
SK-MEL-28 melanoma = system: SK-MEL-28 melanoma
K-562 leukemia = system: K-562 leukemia
SNB-75 CNS = system: SNB-75 CNS
HOP-62 NSCLC = system: HOP-62 NSCLC

| SMILES | TGI (OVCAR-4 ovarian) | TGI (SF-295 CNS) | TGI (MOLT-4 leukemia) | TGI (MCF7 breast) | TGI (HCT-116 colon) | TGI (HT29 colon) | TGI (MDA-N) | TGI (PC-3 prostate) | TGI (OVCAR-5 ovarian) | TGI (NCI-H226 lung) | TGI (SK-MEL-28 melanoma) | TGI (K-562 leukemia) | TGI (SNB-75 CNS) | TGI (HOP-62 NSCLC) |
| --- | --- | --- | --- | --- | --- | --- | --- | --- | --- | --- | --- | --- | --- | --- |
| CCOC(=O)C(N)CSC(=O)NC (stereo not given) | 481 µM | 592 µM | 215 µM | 425 µM | 321 µM | 399 µM | 116 µM | 455 µM | 689 µM | 681 µM | 440 µM | 284 µM | 598 µM | 567 µM |
| CCN(CC)/C(Cl)=C(Cl)\C(=C1\Nc2ccc(OC)cc21)[N+](=O)[O-] | > 100 µM | > 100 µM | 85.2 µM | > 100 µM | > 100 µM | > 100 µM | > 100 µM | > 100 µM | > 100 µM | 69.2 µM | > 100 µM | > 100 µM | 81.8 µM | > 100 µM |
| CC(=O)c1csc2c1C(=O)c1scc(C(C)=O)c1C2=O | 1.65 µM | 3.09 µM | 1.13 µM | 3.31 µM | 4.85 µM | 4.61 µM | 0.319 µM | 7.49 µM | 3.45 µM | 4.14 µM | 3.64 µM | 4.35 µM | 4.54 µM | 3.43 µM |
| c1cc(-c2ncc(-c3ccc4c(c3)CCCO4)o2)ccn1 | > 100 µM | > 100 µM | 17.3 µM | 80.9 µM | 39.3 µM | 32 µM | 23.1 µM | 46.5 µM | > 100 µM | > 100 µM | > 100 µM | 7.05 µM | 53.5 µM | > 100 µM |
| CC1(C)OCC2OC3(c4nc(C#N)c(N)o4)OC(C)(C)OC3C2O1 (stereo not given) | > 100 µM | > 100 µM | > 100 µM | > 100 µM | > 100 µM | > 100 µM | > 100 µM | > 100 µM | > 100 µM | > 100 µM | > 100 µM | > 100 µM | > 100 µM | > 100 µM |
| CC(=O)c1sc2c(c1OC(=O)c1cccs1)c(=O)n(-c1ccccc1)c(=S)n2-c1ccccc1 | 38.8 µM | 7.13 µM | 60.8 µM | 56.4 µM | 36.6 µM | 11.6 µM | 19.2 µM | 15.2 µM | 13.2 µM | 9.84 µM | 15.6 µM | 95.4 µM | 68.8 µM | 33.9 µM |
| C[C@]12CCC(=O)C=C1CC[C@@H]1C2CC[C@]2(C)c3nn(-c4ccc(F)cc4)nc3CC12 (stereo not given in full) | > 100 µM | > 100 µM | > 100 µM | > 100 µM | > 100 µM | > 100 µM | > 100 µM | > 100 µM | > 100 µM | > 100 µM | > 100 µM | > 100 µM | > 100 µM | > 100 µM |
| N#Cc1sc2nc(/C=C3/C=CC=CC3=O)c(O)n2c1N | > 100 µM | > 100 µM | 59.8 µM | > 100 µM | > 100 µM | > 100 µM | > 100 µM | > 100 µM | > 100 µM | > 100 µM | > 100 µM | 55.9 µM | > 100 µM | > 100 µM |
| Cc1cccc(/C=N/NC(=S)NCCc2ccccn2)n1 | > 100 µM | > 100 µM | > 100 µM | > 100 µM | > 100 µM | > 100 µM | > 100 µM | > 100 µM | > 100 µM | 66.3 µM | > 100 µM | > 100 µM | 75 µM | > 75.1 µM |
| O=C1/C(=C\c2ccc([N+](=O)[O-])o2)SC2N=C(COc3ccc(Cl)cc3)NN12 (stereo not given) | 3.43 µM | 34.1 µM | > 100 µM | 4.8 µM | 14.5 µM | 44.4 µM | 14.3 µM | 24.4 µM | 47.5 µM | 41.3 µM | 17.9 µM | 27 µM | 29.7 µM | 41.8 µM |
| COC(=O)C1=C(C)NC(C)=C(C(=O)OC)C1c1ccc(/[N+]([O-])=C/c2ccccc2)cc1 | 32.6 µM | > 100 µM | 71.5 µM | 30.4 µM | 30 µM | > 100 µM | > 100 µM | > 100 µM | > 100 µM | > 100 µM | 36.8 µM | > 100 µM | > 100 µM | > 100 µM |
| O=c1cc(-c2ccccc2)[nH]c2cc3c(cc12)OCO3 | > 100 µM | > 42.3 µM | > 100 µM | > 100 µM | > 29.8 µM | > 46.4 µM | > 100 µM | > 100 µM | > 100 µM | 27.5 µM | > 100 µM | > 100 µM | 43.3 µM | > 90.3 µM |
| COc1ccc(C[N+]23C(CC[C@H]2c2ccccc2)CC[C@H]3c2ccccc2)cc1 (stereo not given in full) | 84.1 µM | 61.7 µM | 90.1 µM | 78.9 µM | > 100 µM | > 100 µM | 65.4 µM | 92.1 µM | > 100 µM | 55 µM | > 100 µM | > 100 µM | 54.1 µM | 67.3 µM |
| C/C(=N\Nc1cc(CN2CCCC2)c(-c2ccc(Cl)cc2)nn1)C(=O)O | > 100 µM | > 100 µM | > 100 µM | > 100 µM | > 100 µM | > 100 µM | > 100 µM | > 100 µM | > 100 µM | > 100 µM | > 100 µM | > 100 µM | > 100 µM | > 100 µM |
| CC(C)CC1[C@@H](OCc2ccccc2)COS(=O)N1Cc1ccccc1 (stereo not given in full) | > 100 µM | > 100 µM | > 100 µM | > 100 µM | > 100 µM | 40.2 µM | > 100 µM | > 100 µM | > 100 µM | > 100 µM | > 100 µM | > 100 µM | 70.7 µM | > 100 µM |
